{"source": "the NIST ThermoML archive (doi:10.1016/j.jct.2005.07.015)", "conditions": "Liquid, Closed cell (Static) method", "note": "Numbers after ± are expanded uncertainties."}
{"smiles": "CCO", "note": "[ethanol]", "values": [{"measurement": "vapor or sublimation pressure", "setting": "298.15 K", "value": "7.878 ± 0.023", "unit": "kPa"}, {"measurement": "vapor or sublimation pressure", "setting": "303.15 K", "value": "10.47 ± 0.027", "unit": "kPa"}, {"measurement": "vapor or sublimation pressure", "setting": "308.15 K", "value": "13.77 ± 0.034", "unit": "kPa"}, {"measurement": "vapor or sublimation pressure", "setting": "313.15 K", "value": "17.91 ± 0.042", "unit": "kPa"}, {"measurement": "vapor or sublimation pressure", "setting": "318.15 K", "value": "23.07 ± 0.052", "unit": "kPa"}, {"measurement": "vapor or sublimation pressure", "setting": "323.15 K", "value": "29.46 ± 0.063", "unit": "kPa"}]}
